Each block holds one compound with its values, some of them ahead of it.
Tests used:
Venturia inaequalis = experiment: Example E: in vivo preventive test on Venturia inaequalis (apples); settings: table E, 100 ppm, evaluated 10 days after inoculation
Protocol: Example E: In Vivo Preventive Test on Venturia inaequalis (Apples) [table] To produce a suitable preparation of active compound, 1 part by weight of active compound is mixed with the stated amounts of solvent and emulsifier, and the concentrate is diluted with water to the desired concentration. To test for preventive activity, young plants are sprayed with the preparation of active compound at the stated rate of application. After the spray coating has dried on, the plants are inoculated with an aqueous conidia suspension of the causal agent of apple scab (Venturia inaequalis) and then remain for 1 day in an incubation cabinet at approximately 20° C. and a relative atmospheric humidity of 100%. The plants are then placed in a greenhouse at approximately 21° C. and a relative atmospheric humidity of approximately 90%.

Sphaerotheca fuliginea = experiment: Example B: in vivo preventive test on Sphaerotheca fuliginea (powdery mildew on cucurbits); settings: table B; 500 ppm; gherkin plants; grading 12 days after contamination
Protocol: Example B: In Vivo Preventive Test on Sphaerotheca fuliginea (Powdery Mildew on Cucurbits) […] Gherkin plants (“Vert petit de Paris” variety), sown in starter cups on a 50/50 peat soil-pozzolana substrate and grown at 24° C., are treated at the Z11 cotyledon stage by spraying with the active ingredient prepared as described above. Plants, used as controls, are treated with the mixture of acetone/tween/DMSO/water not containing the active material. After 24 hours, the plants are contaminated by spraying the cotyledons with an aqueous suspension of Sphaerotheca fuliginea spores (100 000 spores per mL). The spores are collected from infected plants. The contaminated gherkin plants are incubated at about 20° C. and at 70-80% relative humidity. Grading (% of efficacy) is carried out 12 days after the contamination, in comparison with the control plants.

[1] = system: Blumeria graminis f.sp. hordei; experiment: Example I: in vivo preventive test on Blumeria graminis (barley); settings: table I, 500 ppm, evaluated 7 days after inoculation
Protocol: Example I: In Vivo Preventive Test on Blumeria graminis (Barley) [table] To produce a suitable preparation of active compound, 1 part by weight of active compound or active compound combination is mixed with the stated amounts of solvent and emulsifier, and the concentrate is diluted with water to the desired concentration. To test for preventive activity, young plants are sprayed with the preparation of active compound or active compound combination at the stated rate of application. After the spray coating has been dried, the plants are dusted with spores of Blumeria graminis f.sp. hordei. The plants are placed in the greenhouse at a temperature of approximately 18° C. and a relative atmospheric humidity of approximately 80% to promote the development of mildew pustules.

Leptosphaeria nodorum = experiment: Example J: in vivo preventive test on Leptosphaeria nodorum (wheat); settings: table J, 500 ppm, evaluated 8 days after inoculation
Protocol: (§1) Example J: In Vivo Preventive Test on Leptosphaeria nodorum Test (Wheat) [table] To produce a suitable preparation of active compound, 1 part by weight of active compound or active compound combination is mixed with the stated amounts of solvent and emulsifier, and the concentrate is diluted with water to the desired concentration. To test for preventive activity, young plants are sprayed with the preparation of active compound or active compound combination at the stated rate of application. After the spray coating has been dried, the plants are sprayed with a spore suspension of Leptosphaeria nodorum. The plants remain for 48 hours in an incubation cabinet at approximately 20° C. and a relative atmospheric humidity of approximately 100%. The plants are placed in the greenhouse at a temperature of approximately 22° C. and a relative atmospheric humidity of approximately 80%.

[2] = system: Fusarium nivale (var. majus); experiment: Example P: in vivo preventive test on Fusarium nivale (wheat); settings: table P, 500 ppm, evaluated 5 days after inoculation
Protocol: Example P: In Vivo Preventive Test on Fusarium nivale (Wheat) [table] To produce a suitable preparation of active compound, 1 part by weight of active compound or active compound combination is mixed with the stated amounts of solvent and emulsifier, and the concentrate is diluted with water to the desired concentration. To test for preventive activity, young plants are sprayed with the preparation of active compound or active compound combination at the stated rate of application. After the spray coating has been dried, the plants are slightly injured by using a sandblast and afterwards they are sprayed with a conidia suspension of Fusarium nivale (var. majus). The plants are placed in the greenhouse under a translucent incubation cabinet at a temperature of approximately 10° C. and a relative atmospheric humidity of approximately 100%.

[3] = log P by HPLC on reversed-phase column (EEC Directive 79/831 Annex V.A8); assay type: physicochemical; settings: Table 1; HPLC C18, 40° C., 0.1% aqueous formic acid and acetonitrile gradient
How it was run: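 Compounds are eluted at 40° C using 0.1% aqueous formic acid and acetonitrile in a linear gradient from 10% to 90% acetonitrile. Unbranched alkan-2-ones bearing 3 to 16 carbons with known log P serve as calibrants. Each log P is interpolated linearly from retention times of the two bracketing alkanones.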

Puccinia recondita = experiment: Example R: in vivo preventive test on Puccinia recondita (brown rust on wheat); settings: table R; 500 ppm; wheat plants; grading 12 days after contamination
Protocol: Example R: In Vivo Preventive Test on Puccinia recondita (Brown Rust on Wheat) […] Wheat plants (“Scipion” variety), sown in starter cups on a 50/50 peat soil pozzolana substrate and grown at 22° C., are treated at the 1 leaf stage (10 cm height) by spraying with the active ingredient prepared as described above. Plants, used as controls, are treated with the mixture of acetone/tween/DMSO/water not containing the active material. After 24 hours, the plants are contaminated by spraying the leaves with an aqueous suspension of Puccinia recondita spores (100 000 spores per mL). The spores are collected from an infected plant and are suspended in water containing 2.5 mL/L of Tween 80 at 10%. The contaminated wheat plants are incubated for 24 hours at 20° C. and at 100% relative humidity, and then for 10 days at 20° C. and at 70-80% relative humidity. Grading (% of efficacy) is carried out 12 days after the contamination, in comparison with the control plants.

Septoria tritici = experiment: Example K: in vivo preventive test on Septoria tritici (wheat); settings: table K, 500 ppm, evaluated 21 days after inoculation
Protocol: as §1, with “Example K: In Vivo” for “Example J: In Vivo”, “Test on Septoria tritici (Wheat) [table]” for “Test on Leptosphaeria nodorum Test (Wheat) [table]”, “suspension of […] The plants” for “suspension of Leptosphaeria nodorum. The plants”, “of approximately 100% and afterwards for 60 hours at approximately 15° C. in a translucent incubation cabinet at a relative atmospheric humidity of approximately 100%. The” for “of approximately 100%. The”, “of approximately 15° C. and” for “of approximately 22° C. and”

logP [3]: 4.08
SMILES: CC(C1CCCc2ccccc21)N(C(=O)c1c(C(F)F)nn(C)c1F)C1CC1 (stereo not shown) [I.23]
Efficacy (Venturia inaequalis): 100%
Efficacy (Sphaerotheca fuliginea): 100%
Efficacy [1]: 78%
Efficacy (Leptosphaeria nodorum): 100%
Efficacy [2]: 100%
Efficacy (Puccinia recondita): 97%
Efficacy (Septoria tritici): 100%

logP [3]: 3.53
SMILES: Cn1nc(C(F)F)c(C(=O)N(CC2CC(C)(C)Oc3ccccc32)C2CC2)c1F (stereo not shown) [I.33]
Efficacy (Venturia inaequalis): 97%
Efficacy (Sphaerotheca fuliginea): 100%
Efficacy [1]: 100%
Efficacy (Leptosphaeria nodorum): 100%
Efficacy [2]: 100%
Efficacy (Puccinia recondita): 97%
Efficacy (Septoria tritici): 100%
